Measured values taken from patent publication US20070292888A1, “Methods for Measuring Enzyme Activities in Cells, Blood, Tumors and Tissues” (GEN-PATH PHARMACEUTICALS, INC., priority 2004, published 2007).

Target: T1, glucose-6-phosphate dehydrogenase (G6PDH) (Mus musculus, UniProt Q00612)
T1 construct: from tissue; host or cells: mouse tumor, blood, brain, heart, kidney, liver, lung, spleen (crude lysates)
Experiment: Glucose-6-phosphate dehydrogenase activity in tissues of treated mice (fluorescence NADPH assay)
Type: in vivo
Conditions: 11 days i.p. twice per day, various organs
Description: Blood samples from mice were taken (40 μl whole blood) serially or from mice sacrificed at the end of the experiment. Tissues, such as tumors (e.g. from implantation, xenograft, or arising spontaneously), brain, heart, kidney, liver, lung and spleen were taken and flash frozen in liquid nitrogen or on dry ice and stored in −80° C. until time of assay. Four volumes of cold lysis buffer (20 mM HEPES, pH 7.5, 1 mM EDTA, 0.2 g/l Triton X-100® and 0.2 g/L sodium deoxycholate, supplemented with 1 mM DTT and 1 mM PMSF just before use) were added to the blood, which was dissolved by vortexing. For blood that was frozen before coagulation, a clear lysate was obtained. […]
Each reaction was monitored for the appearance of NADH (for transketolase, alpha-ketoglutarate dehydrogenase, pyruvate dehydrogenase) or NADPH (for glucose-6-phosphate dehydrogenase) at room temperature in a fluorescent plate reader with excitation at 340 nm and emission at 470 nm in kinetic mode. The velocity was determined by the slope of the initial linear range of increasing fluorescence, expressed in fluorescent units (FU)/min. The protein concentration in the lysate was determined using Bradford assays (BioRad) with BSA as a standard. […]
We measured enzyme activity in an expanded panel of tissues from mice treated with N3PT or OxyT for 11 days i.p., twice per day. […]

T1 sequence (Q00612 whole entry): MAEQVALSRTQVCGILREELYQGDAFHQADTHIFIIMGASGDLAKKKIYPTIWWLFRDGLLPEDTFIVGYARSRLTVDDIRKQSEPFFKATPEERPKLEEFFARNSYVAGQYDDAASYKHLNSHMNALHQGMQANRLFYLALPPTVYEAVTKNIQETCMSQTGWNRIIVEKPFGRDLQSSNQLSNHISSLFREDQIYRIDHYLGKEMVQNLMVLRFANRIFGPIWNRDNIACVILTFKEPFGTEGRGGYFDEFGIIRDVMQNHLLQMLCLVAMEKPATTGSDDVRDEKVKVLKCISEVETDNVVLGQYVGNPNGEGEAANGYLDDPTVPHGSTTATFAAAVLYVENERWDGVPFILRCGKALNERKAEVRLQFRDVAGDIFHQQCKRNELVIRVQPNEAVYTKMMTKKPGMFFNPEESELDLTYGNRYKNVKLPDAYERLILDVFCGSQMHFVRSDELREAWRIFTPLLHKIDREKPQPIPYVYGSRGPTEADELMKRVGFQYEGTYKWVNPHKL

- G6PDH enzymatic activity following treatment: no significant decrease
SMILES: Cc1ccc(C[n+]2csc(CCO)c2C)c(N)n1 [N3PT, 3-[(2-amino-6-methyl-3-pyridinyl)methyl]-5-(2-hydroxyethyl)-4-methyl thiazolium]
